Entries after “also recorded” stand apart in the source; their conditions may differ.
How the values were obtained:
[1] = system: primary human lung fibroblasts (HLFs); experiment: Activation of human lung fibroblasts on 3 kPa hydrogels by HBEC conditioned media; assay type: cell-based; settings: HLFs in IPF conditioned HBEC media supplemented with inhibitor
Description: Culture and treatment of HLFs: Primary human lung fibroblasts (HLFs) were obtained from control lungs not suitable for transplantation at National Jewish Health. Briefly, pieces of tissue were placed into a tissue-culture dish and weighed down by a coverslip. Cells were cultured in DMEM (Corning, Corning, New York, 10-013-cv) supplemented with L-glutamine (25-005-cl), penicillin/streptomycin (Corning, Corning, New York, 30-002-c1), and 10% fetal bovine serum (ATCC®, Manassas, Virginia, 30-2020). These fibroblasts were then sub-cultured in t-75 flasks. All HLFs used in this study (N=4) were seeded at passage 3. […]
Quantitative RT-PCR Analysis: Total RNA was extracted using RNeasy® Mini kit (Qiagen, Hilden, Germany) and quantified by NanoDrop™ (ThermoFisher Scientific™, Waltham, Massachusetts).Reverse transcription was completed using the High Capacity cDNA Reverse Transcription Kit (Applied Biosystems™, Thermo Fisher Scientific™, Waltham, Massachusetts). […]
Immunofluorescence and cell number quantification for HLF experiments: For fluorescence quantification, (i.e., vimentin or alpha-SMA) images were all processed using the same settings. Fluorescence intensity was determined by channel separation and measurement of mean gray value for the field and normalized to total cell number. Cell number was determined by automated counting in ImageJ. […]

[2] = system: IPF HBECs; experiment: Induction of the unjammed-to-jammed transition (UJT) in IPF HBECs; assay type: cell-based, human; settings: day 14 IPF HBECs
Description: (§1) Epithelial Cell Culture: Primary human bronchial epithelial cells (HBECs) were obtained from two sources (1) provided by Dr. Hong Wei Chu at National Jewish Health, or (2) lung transplant collection at the University of Colorado Hospital (IRB protocol: 11-1664 or 18-0572). Epithelial cells from bronchial brushes or CT-guided dissection were expanded to passage 2 before being cultured at air liquid interface (ALI). Control (N=11), IPF (N=6), and COPD (N=3) were age matched and controls had no history of chronic lung disease (Table 1). Cells were seeded on 24-Transwell plates (Corning, Corning, New York, 3470) coated with type I collagen (Corning, Corning, New York, 354236) and maintained under submerged conditions for five to seven days until the cells reached confluence. Culture media was a 1:1 mixture of DMEM and BEBM (Lonza, Basel, Switzerland, CC170) supplemented with retinoic acid (Sigma-Aldrich, Germany, R-2625) nystatin (Sigma-Aldrich, Germany N1638), and bovine serum albumin (FisherSci, Thermo Fisher Scientific, Waltham, Massachusetts BP9703100). Once confluent, apical media was removed and maintained at ALI. HBECs began recapitulating the in vivo airway, with production of mucus (6-9 days after establishing ALI) and development of a pseudostratified epithelium. Cells were switched to a starvation media (lacking supplemental epidermal growth factor, hydrocortisone, and bovine pituitary extract) 24 hours prior to experimentation.
(§2) For inhibitor, activator, and ligand treatments HBECs were cultured in a starvation media in the absence of EGF, hydrocortisone, and bovine pituitary extract for 24 hours prior to treatment initiation. Cells were then treated for 2-4 hours (with exception of AREG neutralizing antibody which was maintained in the culture media), media was aspirated, the wells were washed with warm PBS and then replaced with fresh starvation media without inhibitor/activator/ligand present, and subsequently imaged. For experiments that required subsequent media changes (96 hour) cells fresh starvation media was changed 48 hours afterwards.
(§3) Live Cell Imaging and Dynamics Measurement: To assess cellular dynamics, time-lapse microscopy and subsequent analysis were completed. Two imaging schemes were utilized: (1) images were taken every 5 minutes for 200 minutes during HBEC differentiation; (2) images were taken every 20 minutes for 48, 96, or 144 hours after HBEC experimental intervention. Phase contrast images were acquired on a Keyence BZ-X810 with a stage incubator (37° C., 5% CO2). Dynamic analysis followed previously published workflows (10-12, 22). Briefly, using phase contrast images instantaneous velocities were mapped by particle image velocimetry utilizing open source PIVLab on MATLAB. Velocity fields were obtained with 2 passes (64×64 and 32×32 pixel size interrogation window with 50% overlap) with a pixel size of 0.75488 μm using a Fast Fourier Transformation method. Trajectories from the PIV were seeded onto a grid and obtained via forward-integration of subsequent fields. These values were then used to determine mean-squared-displacement (MSD) and self-overlap order parameter (Q): MSD(Δt)= ? ri(t+Δt)−ri(t)|2 ? and Q(Δt)=N−1ΣwiNi=1 as previously published. Instantaneous room mean squared velocity (VRMS) of the monolayer was obtained as previously published: VRMS(t)=√1MΣ ? |v(t)2 ? jMj=1
Cell Shape Analysis: Cell shape measurements were achieved via cell border delineation by F-actin immunofluorescence. Images were segmented utilizing SeedWater Segmenter. Similar to previously published workflows, we segmented images which were subsequently analyzed in ImageJ for the shape index (q=Perimeter√Area) and aspect ratio (major and minor axis) for all cells within a given field of view. For each experimental condition an n≥3 was used with at least 3 independent wells per donor per treatment condition. […]

[3] = system: proximal, jammed cultures; experiment: IL-6 family cytokine induced unjamming of proximal airway epithelial cultures; assay type: cell-based, human; settings: proximal cultures pre-treated, then stimulated with IL-6 family cytokines
Description: as §3, with “These values were then used to determine mean-squared-displacement (MSD) and self-overlap order parameter (Q): MSD(Δt)= ? ri(t+Δt)−ri(t)|2 ? and Q(Δt)=N−1ΣwiNi=1 as previously published. Instantaneous room mean squared velocity (VRMS) of the monolayer was obtained as previously published: VRMS(t)=√1MΣ ? |v(t)2 ? jMj=1” left out
Cell Shape Analysis: Cell shape measurements were achieved via cell border delineation by F-actin immunofluorescence. […] Similar to previously published workflows, we segmented images which were subsequently analyzed in ImageJ for the shape index (q=Perimeter√Area) and aspect ratio (major and minor axis) for all cells within a given field of view. […]

[4] = system: IPF HBECs; experiment: Gene expression of ERBB receptors, YAP target genes and MUC5B in IPF HBECs; assay type: cell-based, human; settings: IPF HBECs after inhibition
Description: Quantitative RT-PCR Analysis: Total RNA was extracted using RNeasy® Mini kit (Qiagen, Hilden, Germany) and quantified by NanoDrop™ (ThermoFisher Scientific™, Waltham, Massachusetts).Reverse transcription was completed using the High Capacity cDNA Reverse Transcription Kit (Applied Biosystems™, Thermo Fisher Scientific™, Waltham, Massachusetts). Gene expression was analyzed by using TaqMan® Advanced Master Mix (Thermo Fisher Scientific™, Waltham, Massachusetts and TaqMan® assays. They were subsequently run in triplicate on the ViiA™ 7 Real-Time machine (Thermo Fisher Scientific™, Waltham, Massachusetts). Primer IDs were: β-ACTIN, Hs01060665_g1; MUC5B, Hs00861595_m1; MUC5AC, Hs01365616_m1; EGFR, Hs0176090_m1; ERBB2, Hs01001580_m1; ZEB1, Hs00232783_m1; SNAI1, Hs00195591_m1; VIM, Hs00185584_m1; CTGF, Hs00170014_m1; AREG, Hs00950669_m1; FN1, Hs01549976_m1; PDGFRA, Hs00998018_m1; PDGFA, Hs00234994_m1; PDGFRB, Hs01019589_m1; PDGFB, Hs00966522_m1; TGFBRI, Hs00610320_m1; TGFBI, Hs00998133_m1; COL1A1, Hs00164004_m1; ACTA2, Hs00426835; MMP3, Hs00968305_m1; MMP9, Hs00957562_m1; TIMP1, Hs01092512_g1; and TIMP2, Hs00234278_m1.

[5] = system: COPD HBECs; experiment: Induction of jamming in COPD HBECs; assay type: cell-based, human
Description: as §1
as §2, with “afterwards. […]” for “afterwards.”

[6] = system: IPF HBECs; experiment: YAP immunofluorescence in IPF HBECs; assay type: cell-based, human; settings: IPF HBECs 48 hours after treatment
Description: Immunofluorescence staining: Cells were fixed with 4% paraformaldehyde in PBS with calcium and magnesium for 30 minutes at room temperature. Cells were then washed with PBS and subsequently permeabilized (Triton™-X, at 0.1%) and blocked with 5% bovine serum albumin in PBS for 1 hour at room temperature. Cells were then incubated for >16 hours at 4 degrees with primary antibodies. Primary antibodies were aspirated, and cells were washed with PBS+0.1% Tween-20 at room temperature. Cells were then incubated for 1 hour at room temperature with secondary antibodies (1:500) and/or Phalloidin-iFluor™ 488 1:2000. Cells were stained with 4′,6-diamidino-2-phenylindole at 1:20000 (BioLegend®, San Diego, California, 422801). Subsequently, transwell membranes, or hydrogels, were removed from the well and mounted on glass slides with Fluoromount-G® (SouthernBiotech™, Birmingham, Alabama, 0100-01). Slides were then visualized using an Olympus BX63 microscope (Olympus, Tokyo, Japan).
Immunofluorescence and cell number quantification for HBEC experiments: For total fluorescence quantification (i.e., ERBB2), all images were processed in the same manner with the same microscopy settings. To determine mean fluorescence the channel of interest was separated in ImageJ, and the mean gray value was measured for the field of view and normalized by the total number of cells. Cell counting was achieved by taking 40×images and manually counting all nuclei in a field of view (approximately 200-300). The number of cells also expressing the marker of interested were then counted and normalized by the total number of cells per field. For each experiment a biological n≥3 was used with at least 5 fields of view per well and at least 2 wells being counted in total per donor.

| Compound | fibroblast activation [1] | rescue of increase in cell number and pro-fibrotic gene expression [1] | induction of the UJT (jamming) in IPF epithelia [2] | effect of inhibitor pre-treatment on IL-6 family cytokine induced unjamming [3] | transcription of ERBB receptors, YAP target genes and MUC5B [4] | induction of jamming in COPD epithelia [5] | YAP nuclear exclusion [6] |
| --- | --- | --- | --- | --- | --- | --- | --- |
| NC(=O)c1ccc(-c2nc(-c3ccc4c(c3)OCO4)c(-c3ccccn3)[nH]2)cc1 [SB431542] | reduced fibroblast activation | none of these treatments alone were able to fully rescue the increase in cell number or the associated pro-fibrotic gene expression | – | – | – | – | – |
| O=[N+]([O-])c1ccc2c(c1)S(=O)(=O)C=C2 [Stattic] | – | – | did not induce the UJT | JAK/STAT signaling was dispensable for IL-6 family cytokine induced unjamming in proximal cultures | – | – | – |
| Verteporfin | – | – | halted migration and induced a cobblestone appearance in the epithelia | SRC and YAP were essential for the acquisition of this fluid-like phenotype | reduced the transcription of ERBB receptors, YAP target genes, and MUC5B nearly back to control levels; also recorded: decreases 738 ERBB-YAP target gene expression | not responsive to ERBB-YAP inhibition | results in YAP nuclear exclusion |

From US11933781B2, “Fibrosis model and methods of use thereof” (The Regents of the University of Colorado, priority 2020, dated 2024)
